Measurements taken from PubChem BioAssay AID588495 (Sanford-Burnham Center for Chemical Genomics, 2011).
The source made the active and inactive calls.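 How the source made its calls: active means mean EC50 of 20 µM or lower; inactive means the rest.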

Each compound was assayed against Neurotensin receptor type 2 (Homo sapiens) (UniProt O95665) (assay: NTR2 agonist activity for selectivity, SAR follow-up, selectivity assay for NTR1 agonist project, imaging, NTR2-U2OS cells, beta-arrestin GFP imaging (AID 588495)). Details: image-based GFP translocation.
Neurotensin receptor type 2 (Homo sapiens), sequence (O95665 whole entry, looked up): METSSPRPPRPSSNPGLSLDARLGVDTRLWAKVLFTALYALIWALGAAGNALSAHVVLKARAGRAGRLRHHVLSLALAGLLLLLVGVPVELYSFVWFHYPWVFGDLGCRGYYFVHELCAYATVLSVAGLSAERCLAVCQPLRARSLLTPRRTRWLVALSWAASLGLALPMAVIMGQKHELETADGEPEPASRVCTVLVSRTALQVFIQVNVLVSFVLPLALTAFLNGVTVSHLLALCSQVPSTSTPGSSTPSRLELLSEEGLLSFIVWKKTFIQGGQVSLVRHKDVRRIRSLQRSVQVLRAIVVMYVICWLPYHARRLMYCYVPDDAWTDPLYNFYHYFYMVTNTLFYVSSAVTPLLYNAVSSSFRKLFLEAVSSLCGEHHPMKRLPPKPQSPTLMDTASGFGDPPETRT

| SMILES | EC50 |
| --- | --- |
| COc1cccc(OC)c1-c1nc(C(=O)O)cn1-c1ccncc1 | > 40 µM (inactive) |
| COc1cccc(OC)c1-c1nc(C(=O)N[C@@H](CC(C)C)C(=O)O)cn1-c1ccncc1 | > 40 µM (inactive) |
| COc1cccc(OC)c1-c1cc(C(=O)N[C@@H](CC(C)C)C(=O)O)nn1-c1ccnc2cc(Cl)ccc12 | > 40 µM (inactive) |
| CCCSc1nc2cc(OC)c(OC)cc2c(=N)n1Cc1cccc(C(F)(F)F)c1 | > 40 µM (inactive) |
| COc1cccc(OC)c1-c1nc(C(=O)N[C@@H](CC(C)C)C(=O)O)cn1-c1ccnc2ccccc12 | > 40 µM (inactive) |
| Cc1ccc(Cn2cc3c(-c4ccc(F)cc4)nnc-3c3ccccc32)cc1 | > 40 µM (inactive) |
| CCN(CC)c1ccc(/C=N/Nc2nc(-c3ccc(S(=O)(=O)N(C)C)cc3)cs2)cc1 | > 40 µM (inactive) |
| CN(C)S(=O)(=O)c1ccc(-c2csc(N/N=C/c3ccccc3)n2)cc1 | > 40 µM (inactive) |
| COc1ccc(Cn2c(SCc3ccc(C)cc3)nc3cc(OC)c(OC)cc3c2=N)cc1Cl | > 40 µM (inactive) |
| COc1cc2c3nnc(-c4ccc(Cl)cc4)c-3cn(Cc3ccc(F)cc3)c2cc1OC | 7.78 µM |
| CCOC(=O)c1cc(-c2c(OC)cccc2OC)n(-c2ccnc3cc(Cl)ccc23)n1 | > 40 µM (inactive) |
| COc1ccc(-c2nc(C(=O)N[C@@H](CC(C)C)C(=O)O)cn2-c2ccnc3cc(Cl)ccc23)c(OC)c1 | > 40 µM (inactive) |
| CN(C)S(=O)(=O)c1ccc(-c2csc(N/N=C/c3ccco3)n2)cc1 | > 40 µM (inactive) |
| CC(C)C[C@H](NC(=O)c1cn(-c2ccnc3ccccc23)c(-c2ccccc2)n1)C(=O)O | > 40 µM (inactive) |
| Cc1ccc(Cn2cc3c(-c4ccc(F)cc4)nnc-3c3cc4c(cc32)OCO4)cc1 | 15.3 µM |
| COc1ccc(/C=N/Nc2nc(-c3ccc(S(=O)(=O)N(C)C)cc3)cs2)cc1 | > 40 µM (inactive) |
| COc1ccc(-c2nnc3c4cc(OC)c(OC)cc4n(Cc4ccccc4)cc2-3)cc1 | > 40 µM (inactive) |
| CC(C)C[C@H](NC(=O)c1cn(-c2ccnc3cc(Cl)ccc23)c2ccccc12)C(=O)O | > 40 µM (inactive) |
| O=S(=O)(c1ccc(-c2csc(N/N=C/c3ccco3)n2)cc1)N1CCCC1 | > 40 µM (inactive) |
| CN(C)S(=O)(=O)c1ccc(-c2csc(N/N=C/c3ccc(C(C)(C)C)cc3)n2)cc1 | > 40 µM (inactive) |

The remaining lines, values ahead:

| EC50 | SMILES |
| --- | --- |
| > 40 µM (inactive) | COc1cc2nc(C3CCC3)nc(N3CCN(c4ccccc4C)CC3)c2cc1OC |
| > 40 µM (inactive) | Clc1cccc(-n2ncc3c(N4CCN(c5ccccc5)CC4)ncnc32)c1 |
| > 40 µM (inactive) | Cc1ccc(-n2ncc3c(N4CCN(c5ccccc5)CC4)ncnc32)c(C)c1 |
| > 40 µM (inactive) | CCOc1cc2nc(-c3ccc(OC)c(OC)c3)nc(N3CCN(c4ccccc4F)CC3)c2cc1OC |
| > 40 µM (inactive) | Clc1ccccc1-n1ncc2c(N3CCN(c4ccccc4)CC3)ncnc21 |
| > 40 µM (inactive) | COc1cccc(N2CCN(c3nc(C4CCC4)nc4cc(OC)c(OC)cc34)CC2)c1 |
| > 40 µM (inactive) | Cc1ccc(-n2ncc3c(N4CCN(c5ccccc5Cl)CC4)ncnc32)c(C)c1 |
| > 40 µM (inactive) | Cc1ccc(-n2ncc3c(N4CCN(c5ccccc5)CC4)ncnc32)cc1 |
| > 40 µM (inactive) | Cc1ccc(-n2ncc3c(N4CCN(c5ccccc5)CC4)ncnc32)cc1C |
